According to paper PMC3772632 (Nature structural & molecular biology, 2013):

Assays:
SBD = conditions: cited from earlier work
[1] = tested on: DnaK Trp102 (NBD-SBD allosteric coupling); conditions: cited from earlier work
[2] = tested on: dnak deletion strain BB205; assay: Growth tests in dnak deletion strain BB205 at 37°C; format: cell-based, E. coli; conditions: serial dilutions spotted on LB plates, 20 μM IPTG, one overnight
DnaK ATPase = conditions: ref [16],[28]; cited from earlier work

## Nc1ncnc2c1ncn2[C@@H]1O[C@H](COP(=O)(O)OP(=O)(O)OP(=O)(O)O)[C@@H](O)[C@H]1O [ATP]
SBD; Hsp70 (mainly DnaK)
  Binding and release rates of substrates upon ATP binding: greatly accelerated, more for release than binding
SBD; ref [19],[20]
  Reduction of affinity of SBD for its substrates upon ATP binding: two to three
[1]; full-length DnaK, relative to apo and ADP-bound forms, ref [16]
  ATP-induced change of tryptophan fluorescence: blue-shift and fluorescence quenching

## D100L: DnaK mutated individually at Asp100
[2]
  in vivo DnaK function / activity in growth tests: moderate growth phenotype

## G468P
[2]
  in vivo DnaK function / activity in growth tests: compromised in vivo DnaK function modestly

## G461P
[2]
  in vivo DnaK function / activity in growth tests: compromised in vivo DnaK function modestly

## T199A: well-characterized mutation that abolishes ATPase activity but maintains allosteric coupling
[1]; ref [16],[28]
  Allosteric coupling of mutant: maintains allosteric coupling
DnaK ATPase
  ATPase activity of mutant: abolishes ATPase activity
